Patent US9577283B2, “Energy storage battery” (NISSIN ELECTRIC CO., LTD., priority 2012, dated 2017)

Assay: attempt to prepare 0.2 mol/L aqueous solution of Mn(II) complex (deposition of manganese compound)
Type: physicochemical
Details: target concentration 0.2 mol/L, metal:ligand 1:1, pH 7, with Na2SO4
Excerpt: Accordingly, it was known that if malonic acid as a polycarboxylic acid is used instead of polyethyleneimine, it is impossible to prepare a cathode electrolyte containing a Mn(II) complex in a sufficient concentration.
Accordingly, it was known that if succinic acid as a polycarboxylic acid is used instead of polyethyleneimine, it is impossible to prepare a cathode electrolyte containing a Mn(II) complex at a sufficient concentration.
Accordingly, it was known that if ethylenediamine is used instead of polyethyleneimine, it is impossible to prepare a cathode electrolyte containing a Mn(II) complex at a sufficient concentration.
Meanwhile, the cathode electrolyte was prepared as follows. Firstly, 0.1 mol (6.0 g) of ethylenediamine was added to and dissolved in 70 ml of distilled water.

## Mn(II)-malonic acid complex
  deposition of manganese compound on preparing aqueous solution: manganese compound is immediately deposited
